# Values of other authors in PMC6631257.
# Test system: CYP2D6
row,CYP2D6 inhibitor strength,SMILES
1,weak inhibitor,COc1ccc([C@@H]2Sc3ccccc3N(CCN(C)C)C(=O)[C@@H]2OC(C)=O)cc1 [diltiazem]
2,strong,CNCCC(Oc1ccc(C(F)(F)F)cc1)c1ccccc1 (stereo not drawn) [fluoxetine]

row,SMILES,CYP2D6 inhibitor strength
1,Fc1ccc([C@@H]2CCNC[C@H]2COc2ccc3c(c2)OCO3)cc1 [paroxetine],strong
